According to ChEMBL document CHEMBL3400146, “Synthesis and structure-activity relationship studies of novel [6,6,5] tricyclic oxazolidinone derivatives as potential antibacterial agents” (Bioorg Med Chem Lett, 2015):
Converted amounts (≈) assume the structure as drawn.

What was measured:
[1] = tested on: Enterococcus faecalis; assay: Antibacterial activity against Enterococcus faecalis incubated for 16 hrs by agar dilution method; assay type: functional
[2] = tested on: Staphylococcus aureus; assay: Antibacterial activity against methicillin-resistant Staphylococcus aureus incubated for 16 hrs by agar dilution method; assay type: functional
[3] = tested on: Streptococcus pneumoniae; assay: Antibacterial activity against penicillin-resistant Streptococcus pneumoniae incubated for 16 hrs by agar dilution method; assay type: functional
[4] = tested on: Staphylococcus aureus; assay: Antibacterial activity against methicillin-sensitive Staphylococcus aureus incubated for 16 hrs by agar dilution method; assay type: functional
[5] = tested on: Staphylococcus epidermidis; assay: Antibacterial activity against methicillin-resistant Staphylococcus epidermidis incubated for 16 hrs by agar dilution method; assay type: functional
[6] = tested on: Staphylococcus epidermidis; assay: Antibacterial activity against methicillin-sensitive Staphylococcus epidermidis incubated for 16 hrs by agar dilution method; assay type: functional
[7] = Half life in Sprague-Dawley rat liver microsomes at 0.1 uM in presence of NADPH by LC/MS/MS method; assay type: ADME
[8] = Half life in human liver microsomes at 0.1 uM in presence of NADPH by LC/MS/MS method; assay type: ADME
[9] = tested on: Staphylococcus aureus; assay: Antibacterial activity against Staphylococcus aureus […] incubated for 16 hrs by agar dilution method; assay type: functional
[10] = tested on: Liver microsome; assay: Intrinsic clearance in human liver microsomes assessed per mg protein at 0.1 uM incubated for 7 to 60 mins in presence of NADPH by LC/MS/MS method; assay type: ADME; parameters: unit not given here
[11] = tested on: Liver microsome; assay: Intrinsic clearance in Sprague-Dawley rat liver microsomes assessed per mg protein at 0.1 uM incubated for 7 to 60 mins in presence of NADPH by LC/MS/MS method; assay type: ADME; parameters: unit not given here

CN1C[C@H](c2ccc(-c3ccc4c(c3)OC[C@H]3[C@H](CO)OC(=O)N43)cn2)OC1=O
MIC [1]: 1 µg/mL (≈ 2.52 µM) | MIC [2]: 0.5 µg/mL (≈ 1.26 µM) | MIC [3]: 1 µg/mL (≈ 2.52 µM) | MIC [4]: 0.5 µg/mL (≈ 1.26 µM) | MIC [5]: 0.25 µg/mL (≈ 0.629 µM) | MIC [6]: 0.25 µg/mL (≈ 0.629 µM) | half-life at 0.1 µM [7]: 16.7 h | half-life at 0.1 µM [8]: 68.8 h | MIC [9]: 0.5 µg/mL (≈ 1.26 µM)

O=C1OCCN1c1ccc(-c2ccc3c(c2)OC[C@H]2[C@H](CO)SC(=O)N32)cn1
MIC [1]: > 16 µg/mL | MIC [3]: > 16 µg/mL | MIC [4]: > 16 µg/mL | MIC [6]: > 16 µg/mL | MIC [9]: > 16 µg/mL

N#Cc1ccc(-c2ccc3c(c2)OC[C@H]2[C@H](CO)SC(=O)N32)cn1
MIC [1]: > 16 µg/mL | MIC [3]: > 16 µg/mL | MIC [4]: > 16 µg/mL | MIC [6]: > 16 µg/mL | MIC [9]: > 16 µg/mL

O=C1OCCN1c1ccc(-c2ccc3c(c2)SC[C@H]2[C@H](CO)OC(=O)N32)cn1
MIC [1]: > 16 µg/mL | MIC [3]: > 16 µg/mL | MIC [4]: > 16 µg/mL | MIC [6]: > 16 µg/mL | MIC [9]: > 16 µg/mL

N#Cc1ccc(-c2ccc3c(c2)SC[C@H]2[C@H](CO)OC(=O)N32)cn1
MIC [1]: > 16 µg/mL | MIC [3]: > 16 µg/mL | MIC [4]: > 16 µg/mL | MIC [6]: > 16 µg/mL | MIC [9]: > 16 µg/mL

N#CC1(c2ccc(-c3ccc4c(c3)SC[C@H]3[C@H](CO)OC(=O)N43)cn2)CC1
MIC [1]: > 16 µg/mL | MIC [3]: > 16 µg/mL | MIC [4]: > 16 µg/mL | MIC [6]: > 16 µg/mL | MIC [9]: > 16 µg/mL

CC(C)(C)OC(=O)N1CC2C(CO)OC(=O)N2c2ccc(-c3ccc(C4(C#N)CC4)nc3)cc21 (configuration not stated)
MIC [1]: > 16 µg/mL | MIC [3]: > 16 µg/mL | MIC [4]: > 16 µg/mL | MIC [6]: > 16 µg/mL | MIC [9]: > 16 µg/mL

N#CC1(c2ccc(-c3ccc4c(c3)NCC3C(CO)OC(=O)N43)cn2)CC1 (configuration not stated)
MIC [1]: > 16 µg/mL | MIC [3]: > 16 µg/mL | MIC [4]: > 16 µg/mL | MIC [6]: > 16 µg/mL | MIC [9]: > 16 µg/mL

CC(=O)NC[C@@H]1OC(=O)N2c3ccc(-c4ccc(C(C)=O)nc4)cc3SC[C@@H]12
MIC [1]: 4 µg/mL (≈ 10.1 µM) | MIC [2]: 2 µg/mL (≈ 5.03 µM) | MIC [3]: 2 µg/mL (≈ 5.03 µM) | MIC [4]: 2 µg/mL (≈ 5.03 µM) | MIC [5]: 2 µg/mL (≈ 5.03 µM) | MIC [6]: 2 µg/mL (≈ 5.03 µM) | MIC [9]: 8 µg/mL (≈ 20.1 µM)

COc1ccc(-c2ccc3c(c2)SC[C@H]2[C@H](CNC(C)=O)OC(=O)N32)cn1
MIC [1]: 8 µg/mL (≈ 20.8 µM) | MIC [2]: 4 µg/mL (≈ 10.4 µM) | MIC [3]: 4 µg/mL (≈ 10.4 µM) | MIC [4]: 8 µg/mL (≈ 20.8 µM) | MIC [5]: 4 µg/mL (≈ 10.4 µM) | MIC [6]: 4 µg/mL (≈ 10.4 µM) | MIC [9]: 8 µg/mL (≈ 20.8 µM)

CC(=O)NC[C@@H]1OC(=O)N2c3ccc(-c4ccc(F)nc4)cc3SC[C@@H]12
MIC [1]: 4 µg/mL (≈ 10.7 µM) | MIC [2]: 2 µg/mL (≈ 5.36 µM) | MIC [3]: 2 µg/mL (≈ 5.36 µM) | MIC [4]: 4 µg/mL (≈ 10.7 µM) | MIC [5]: 2 µg/mL (≈ 5.36 µM) | MIC [6]: 2 µg/mL (≈ 5.36 µM) | MIC [9]: 4 µg/mL (≈ 10.7 µM)

CC(=O)NC[C@@H]1OC(=O)N2c3ccc(-c4ccc(C#N)nc4)cc3SC[C@@H]12
MIC [1]: 2 µg/mL (≈ 5.26 µM) | MIC [2]: 4 µg/mL (≈ 10.5 µM) | MIC [3]: 2 µg/mL (≈ 5.26 µM) | MIC [4]: 4 µg/mL (≈ 10.5 µM) | MIC [5]: 4 µg/mL (≈ 10.5 µM) | MIC [6]: 4 µg/mL (≈ 10.5 µM) | MIC [9]: 8 µg/mL (≈ 21 µM)

CC(=O)NC[C@@H]1OC(=O)N2c3ccc(-c4ccc(N5CCOC5=O)nc4)cc3SC[C@@H]12
MIC [1]: 4 µg/mL (≈ 9.08 µM) | CLH [10]: 3.47 | MIC [2]: 2 µg/mL (≈ 4.54 µM) | MIC [3]: 1 µg/mL (≈ 2.27 µM) | MIC [4]: 4 µg/mL (≈ 9.08 µM) | MIC [5]: 2 µg/mL (≈ 4.54 µM) | MIC [6]: 2 µg/mL (≈ 4.54 µM) | half-life at 0.1 µM [7]: 6.13 h | half-life at 0.1 µM [8]: 10.1 h | MIC [9]: 4 µg/mL (≈ 9.08 µM) | CLH [11]: 5.71

CC(=O)NC[C@@H]1OC(=O)N2c3ccc(-c4ccc(C5(C#N)CC5)nc4)cc3SC[C@@H]12
MIC [1]: 4 µg/mL (≈ 9.51 µM) | MIC [2]: 2 µg/mL (≈ 4.76 µM) | MIC [3]: 2 µg/mL (≈ 4.76 µM) | MIC [4]: 4 µg/mL (≈ 9.51 µM) | MIC [5]: 2 µg/mL (≈ 4.76 µM) | MIC [6]: 2 µg/mL (≈ 4.76 µM) | MIC [9]: 4 µg/mL (≈ 9.51 µM)

COc1ccc(-c2ccc3c(c2)SC[C@H]2[C@H](CNC(C)=S)OC(=O)N32)cn1
MIC [1]: 8 µg/mL (≈ 19.9 µM) | MIC [2]: 4 µg/mL (≈ 9.96 µM) | MIC [3]: 2 µg/mL (≈ 4.98 µM) | MIC [4]: 4 µg/mL (≈ 9.96 µM) | MIC [5]: 4 µg/mL (≈ 9.96 µM) | MIC [6]: 4 µg/mL (≈ 9.96 µM) | MIC [9]: 4 µg/mL (≈ 9.96 µM)

CC(=S)NC[C@@H]1OC(=O)N2c3ccc(-c4ccc(F)nc4)cc3SC[C@@H]12
MIC [1]: 2 µg/mL (≈ 5.14 µM) | MIC [2]: 2 µg/mL (≈ 5.14 µM) | MIC [3]: 1 µg/mL (≈ 2.57 µM) | MIC [4]: 8 µg/mL (≈ 20.5 µM) | MIC [5]: 1 µg/mL (≈ 2.57 µM) | MIC [6]: 2 µg/mL (≈ 5.14 µM) | MIC [9]: 8 µg/mL (≈ 20.5 µM)

CC(=S)NC[C@@H]1OC(=O)N2c3ccc(-c4ccc(C#N)nc4)cc3SC[C@@H]12
MIC [1]: > 16 µg/mL | MIC [2]: 4 µg/mL (≈ 10.1 µM) | MIC [3]: 4 µg/mL (≈ 10.1 µM) | MIC [4]: 8 µg/mL (≈ 20.2 µM) | MIC [5]: 4 µg/mL (≈ 10.1 µM) | MIC [6]: 4 µg/mL (≈ 10.1 µM) | MIC [9]: 8 µg/mL (≈ 20.2 µM)

CC(=S)NC[C@@H]1OC(=O)N2c3ccc(-c4ccc(N5CCOC5=O)nc4)cc3SC[C@@H]12
MIC [1]: 1 µg/mL (≈ 2.19 µM) | CLH [10]: 63.4 | MIC [2]: 1 µg/mL (≈ 2.19 µM) | MIC [3]: 1 µg/mL (≈ 2.19 µM) | MIC [4]: 2 µg/mL (≈ 4.38 µM) | MIC [5]: 1 µg/mL (≈ 2.19 µM) | MIC [6]: 1 µg/mL (≈ 2.19 µM) | half-life at 0.1 µM [7]: 0.35 h | half-life at 0.1 µM [8]: 0.55 h | MIC [9]: 2 µg/mL (≈ 4.38 µM) | CLH [11]: 99.6

CC(=O)NC[C@@H]1OC(=O)N2c3ccc(-c4ccc(N5CCOC5=O)nc4)cc3[S+]([O-])C[C@@H]12 (some centres not stated)
MIC [1]: > 16 µg/mL | MIC [3]: > 16 µg/mL | MIC [4]: > 16 µg/mL | MIC [6]: > 16 µg/mL | MIC [9]: > 16 µg/mL

CC(=O)NC[C@@H]1OC(=O)N2c3ccc(-c4ccc(N5CCOC5=O)nc4)cc3S(=O)(=O)C[C@@H]12
MIC [1]: > 16 µg/mL | MIC [3]: > 16 µg/mL | MIC [4]: > 16 µg/mL | MIC [6]: > 16 µg/mL | MIC [9]: > 16 µg/mL

CC(=O)NCC1OC(=O)N2c3ccc(-c4ccc(N5CCOC5=O)nc4)cc3N(C(=O)OC(C)(C)C)CC12 (configuration not stated)
MIC [1]: > 16 µg/mL | MIC [3]: > 16 µg/mL | MIC [4]: > 16 µg/mL | MIC [6]: > 16 µg/mL | MIC [9]: > 16 µg/mL

CC(=O)NCC1OC(=O)N2c3ccc(-c4ccc(N5CCOC5=O)nc4)cc3NCC12 (configuration not stated)
MIC [1]: 16 µg/mL (≈ 37.8 µM) | MIC [2]: > 4 µg/mL | MIC [3]: 4 µg/mL (≈ 9.45 µM) | MIC [4]: 16 µg/mL (≈ 37.8 µM) | MIC [5]: > 2 µg/mL | MIC [6]: 16 µg/mL (≈ 37.8 µM) | MIC [9]: 16 µg/mL (≈ 37.8 µM)

CN1CC(c2ccc(-c3ccc4c(c3)OC[C@H]3[C@H](CO)SC(=O)N43)cn2)OC1=O (single isomer, unassigned)
MIC [1]: > 16 µg/mL | MIC [3]: > 16 µg/mL | MIC [4]: > 16 µg/mL | MIC [6]: > 16 µg/mL | MIC [9]: > 16 µg/mL

CC(=O)NC[C@@H]1OC(=O)N2c3ccc(-c4ccc(C5CN(C)C(=O)O5)nc4)cc3SC[C@@H]12 (single isomer, unassigned)
MIC [1]: 4 µg/mL (≈ 8.8 µM) | CLH [10]: 0 | MIC [2]: 2 µg/mL (≈ 4.4 µM) | MIC [3]: 2 µg/mL (≈ 4.4 µM) | MIC [4]: 4 µg/mL (≈ 8.8 µM) | MIC [5]: 2 µg/mL (≈ 4.4 µM) | MIC [6]: 2 µg/mL (≈ 4.4 µM) | half-life at 0.1 µM [7]: 3.85 h | MIC [9]: 4 µg/mL (≈ 8.8 µM) | CLH [11]: 9.08

CC(=O)NC[C@H]1CN(c2ccc(N3CCOCC3)c(F)c2)C(=O)O1 [LINEZOLID]
MIC [2]: 1 µg/mL (≈ 2.96 µM) | MIC [5]: 2 µg/mL (≈ 5.93 µM) | MIC [6]: 2 µg/mL (≈ 5.93 µM)
